Like-named read-outs stand apart in the source and are kept apart here.
Columns and labels:
[1] = system: T cells stimulated with anti-CD3 and CD28 antibodies; assay: Gene expression program of activated T cells (RNA-seq); assay type: cell-based, mouse; conditions: ex vivo anti-CD3 and CD28 stimulation in presence of drug
Experimental: Plates were coated with 10 μg/mL anti-CD3 (clone 145-2C11, Biolegend Cat. 100302) and 2 μg/mL anti-CD28 (clone 37.51, Biolegend Cat. 102102) in PBS overnight at 4° C. and washed twice with cold PBS prior to use. CFSE-labeled CD5-selected splenic T cells from naïve C57BL/6J mice were obtained identically as for adoptive cell transfer, and 5×10^4 cells incubated with coated plates in the presence of splicing inhibitor drugs at the indicated concentrations, followed by analysis by standard flow cytometry on day 3. Of note, for RNA-seq analyses, T cells were not labeled with CFSE, and underwent activation for 4 days (96 hours) in the presence of various splicing modulator drugs to harmonize experimental conditions with RNA-seq analyses of tumors treated with splicing inhibitors. For the RNA-seq experiments only, T cells in all conditions were also incubated with IL-2 at 50 U/mL to maximize viability and yield.
(§1) Bulk lung and colon were homogenized using a Qiagen TissueRuptor. For all tissues and cell types, RNA was extracted using an RNeasy kit (Qiagen, Frederick, Md.) and quantified using a NanoDrop 8000 (ThermoFisher Scientific). A minimum of 500 ng of high-quality RNA (as determined by Agilent Bioanalyzer) per sample or replicate was used for library preparation. Poly(A)-selected, strand-specific (dUTP method) Illumina libraries were prepared with a modified TruSeq protocol and sequenced on the Illumina HiSeq 2000 (˜100M 2×101 bp paired-end reads per sample or replicate).

[2] = system: B16-F10, MB49, MC38, and CT26; assay: RNA-seq splicing analysis, mouse tumor cell lines; assay type: cell-based; conditions: doses that did not affect tumor cell growth in vitro
Experimental: Unless otherwise specified, cell lines were treated with splicing inhibitors at the indicated concentrations for 96 hours in vitro, harvested and washed three times with PBS in excess to remove all drug, and then used for downstream analyses and/or subsequent studies, including phenotyping, RNA-seq analyses, continued growth in vitro, or tumor challenge in vivo into syngeneic animals.
as §1
RNA-seq analysis was performed as previously described (Dvinge, H., et al. (2014). Sample processing obscures cancer-specific alterations in leukemic transcriptomes. Proc Natl Acad Sci USA 111, 16802-16807, incorporated herein by reference in its entirety). […] Aligned reads from these two mapping steps were merged to generate final BAM files for all subsequent analyses. […]

[3] = system: OT-1 transgenic T cells against ovalbumin (OVA)-expressing B16-F10 cells; assay: OT-1 cytotoxicity assay; assay type: cell-based, mouse; conditions: 18 hours; minimal impairment at doses less than 4 μM
Experimental: Bulk splenocytes from OT-1 animals were cultured for three days with 100 U/mL murine IL-2 and 100 μg/mL SIINFEKL (SEQ ID NO:1) peptide to activate CD8^+ T cells. Cultures were subsequently washed thoroughly to remove ova peptide and rested for at least 24 hours prior to use. OT-1 cells were passaged in T cell media with 50 U/mL IL-2 for no more than seven days from animal sacrifice prior to use. For the cytotoxicity assay, tumor cells alone or OT-1+tumor cells (1:1 ratio) were incubated in T cell media for 18 hours under standard conditions with the indicated concentrations of splicing drugs and analyzed by flow cytometry to quantify killing. OT-1 cells and other hematopoietic cells were excluded with the use of CD45, CD3, and CD8 staining. Tumor cell viability was measured using DAPI.

[4] = system: bone marrow hematopoietic stem and progenitor cells; assay: M3434 methylcellulose colony assay; assay type: cell-based, mouse
Experimental: 25,000 red blood cell-lysed bone marrow mononuclear cells from C57BL/6 mice were plated in duplicates or triplicates in each well of a non-tissue-culture treated 6 well plate with M3434 methylcellulose media in the presence of splicing drugs at the indicated concentrations as per manufacturer's instructions (StemCell Technologies, Cat. 03434) and incubated for seven days prior to quantification of colonies by manual microscopy.

[5] = system: 501-MEL, A375, and SK-MEL-239; assay: RNA-seq splicing analysis, human tumor cell lines; assay type: cell-based; conditions: identical treatment
Experimental: as §1
RNA-seq analysis was performed as previously described (Dvinge, H., et al. (2014). Sample processing obscures cancer-specific alterations in leukemic transcriptomes. Proc Natl Acad Sci USA 111, 16802-16807, incorporated herein by reference in its entirety). […] Aligned reads from these two mapping steps were merged to generate final BAM files for all subsequent analyses.
MISO v2.0 was used to quantify all expression of isoforms arising from exon skipping (cassette exons), competing 5′ splice site selection, competing 3′ splice site selection, and annotated intron retention. […]

[6] = system: OT-1 T cells; assay: Intracellular cytokine staining of OT-1 T cells; assay type: cell-based, mouse; conditions: higher doses
Experimental: OT-1 cells were prepared and incubated with ovalbumin-expressing tumors as described above in the LAMP-1 assay. For some experiments OT-1 cells were instead left unstimulated (DMSO) or treated with PMA 1 μg/mL+ionomycin 1 μM as a supraphysiologic stimulus. In all cases, T cells underwent a 5-6 hour incubation period in the presence of DMSO or splicing modulators at the indicated concentrations, and with brefeldin A and monensin present for the entire duration. Cells were subsequently washed, stained for surface markers, and then fixed/permeabilized for intracellular staining of the indicated cytokines according to manufacturer instructions (BD Biosciences).

SMILES	genes normally upregulated upon T cell activation [1]	splicing changes in mouse tumor cell lines [2]	in vitro cytotoxicity of primed OT-1 T cells against OVA-expressing B16-F10 cells [3]	hematopoiesis (colony formation) ([4]; micromolar doses, pladienolide B at nanomolar concentrations)	splicing changes in human cancer cells [5]	ability of OT-1 T cells to secrete IFNγ or TNFα [6]	hematopoiesis (colony formation) [4]
CC(C)Oc1ccc(-c2c[nH]cc2CN(C)CCN)cc1 [MS-023]	much milder changes	dramatic changes in both alternative and constitutive splicing	minimally impaired	intact	stereotyped and pervasive splicing changes	did not inhibit	
NS(=O)(=O)c1ccc(S(=O)(=O)Nc2cccc3c(Cl)c[nH]c23)cc1 [indisulam]	much milder changes	dramatic changes in both alternative and constitutive splicing	minimally impaired		stereotyped and pervasive splicing changes	did not inhibit	intact
